Measured values as given in patent publication US12216119B2, “IGF-1 analysis, adjustment and disease management of non-neurological and/or neurological conditions” (THE CGP LAB LIMITED, priority 2017, dated 2025).

Experiments:
[1] = Vitamin C added to BCA: efficacy of BCA to increase cGP levels; details: added to BCA as ascorbic acid
[2] = system: rats with ischemic brain injury; details: cited from earlier work
hypertensive rats = details: cited from earlier work

SMILES | effect on the efficacy of BCA to increase the levels of cGP [1] | ischemic brain injury [2] | systemic blood pressure (hypertensive rats)
O=C1O[C@H]([C@@H](O)CO)C(O)=C1O [Vitamin C, ascorbic acid] | negative effect |  | 
O=C1NCC(=O)N2CCC[C@@H]12 [cGP, cyclic glycine-proline] |  | prevents ischemic brain injury | normalises the systemic blood pressure
